Measured values as given in patent US20260315398A1, “POLYPEPTIDE DRUG-CONTAINING SUSTAINED-RELEASE MICROSPHERE, PHARMACEUTICAL FORMULATION THEREOF, PREPARATION METHOD THEREFOR, AND USE THEREOF” (HUILLY PHARMA CO., LTD, priority 2023, published 2026).

Legend:
[1] = Effect Simulation of Aggregation Inhibitor, AFM observation of fibrils (FIG. 6); format: physicochemical; conditions: aggregation inhibitors sucrose (1) and phenol (2); inhibitor:drug:water 1:3:100, lyophilized, PBS pH 7.4, AFM
Experimental: In this embodiment, simulation experiments of anti-aggregation effects are carried out using liraglutide (Lira) and semaglutide (Sema) as examples, respectively, with specific methods as follows.
A mixture of aggregation inhibitors (aggregation inhibitor 1 is sucrose, and aggregation inhibitor 2 is phenol), a drug substance, and deionized water are mixed at a weight ratio of 1:3:100 and subsequently lyophilized. PBS (pH 7.4) is added dropwise to the lyophilized drug powder to simulate gradual infiltration of the drug inside THE microsphere. Afterwards, a portion of the drug is dissolved in the PBS, and an atomic force microscope (AFM) is used to observe whether fibrils are formed by the drug and to simulate structural changes of the drug during the slow permeation process inside the microsphere.

[2] = high-concentration conditions; cited from earlier work

CCCCCCCCCCCCCCCC(=O)N[C@@H](CCC(=O)NCCCC[C@H](NC(=O)[C@H](C)NC(=O)[C@H](C)NC(=O)[C@H](CCC(N)=O)NC(=O)CNC(=O)[C@H](CCC(=O)O)NC(=O)[C@H](CC(C)C)NC(=O)[C@H](Cc1ccc(O)cc1)NC(=O)[C@H](CO)NC(=O)[C@H](CO)NC(=O)[C@@H](NC(=O)[C@H](CC(=O)O)NC(=O)[C@H](CO)NC(=O)[C@@H](NC(=O)[C@H](Cc1ccccc1)NC(=O)[C@@H](NC(=O)CNC(=O)[C@H](CCC(=O)O)NC(=O)[C@H](C)NC(=O)[C@@H](N)Cc1cnc[nH]1)[C@@H](C)O)[C@@H](C)O)C(C)C)C(=O)N[C@@H](CCC(=O)O)C(=O)N[C@@H](Cc1ccccc1)C(=O)N[C@H](C(=O)N[C@@H](C)C(=O)N[C@@H](Cc1c[nH]c2ccccc12)C(=O)N[C@@H](CC(C)C)C(=O)N[C@H](C(=O)N[C@@H](CCCNC(=N)N)C(=O)NCC(=O)N[C@@H](CCCNC(=N)N)C(=O)NCC(=O)O)C(C)C)[C@@H](C)CC)C(=O)O [liraglutide]
inhibition of fibrillation by aggregation inhibitor [1]: significantly inhibit fibrillation
aggregation and drug polymer fiber formation [2]: prone to aggregation and even form drug polymer fibers
